Test results as given in article PMC8160025 (Nanomedicine : nanotechnology, biology, and medicine, 2020).

Experiments:
[1] = Spatial distribution of vismodegib in brain sections by IR-MALDESI; type: in vivo, mouse; conditions: 4 h after IP injection
serum protein = assay: Unbound vismodegib over time after incubation in FBS; type: in vitro ADME, bovine; conditions: 30 min incubation
[2] = Bone toxicity: femur length by CT scan and direct measurement; type: in vivo, mouse; conditions: 4 daily doses of 100 mg/kg IP from P10
phosphorylated RB (pRB) = assay: Pharmacodynamics: pRB+ / PCNA proliferation markers in G-Smo medulloblastoma; type: in vivo, mouse; conditions: for suppression of pRB+ cell fraction in tumors: 24 h
[3] = system: SHH-driven medulloblastoma; assay: Survival; type: in vivo, mouse; conditions: 100 mg/kg IP or orally, or 50 mg/kg IP
[4] = 4 h
[5] = cited from earlier work
[6] = children; cited from earlier work
[7] = Pharmacokinetics by LC-MS in medulloblastoma-bearing G-Smo mice; conditions: mouse, in vivo, ip, 100 mg/kg
albumin = conditions: 4 h post administration, SPE

CS(=O)(=O)c1ccc(C(=O)Nc2ccc(Cl)c(-c3ccccn3)c2)c(Cl)c1 [vismodegib]
distribution of vismodegib in tumor and forebrain [1]: evenly distributed
unbound fraction of total vismodegib (serum protein): marginal
femur length [2]: reduced femur length
suppression of pRB (phosphorylated RB (pRB); 50 mg/kg IP): sufficient to suppress pRB
suppression of pRB+ cell fraction in tumors (phosphorylated RB (pRB); single 100 mg/kg IP): similarly suppressed pRB
suppression of pRB+ cell fraction in tumors (phosphorylated RB (pRB); single 100 mg/kg oral): less suppression
event free survival (EFS) [3]: failed to extend the EFS
vismodegib level in serum ([4]; 100 mg/kg, systemic (IP)): comparable levels to POx-vismo
vismodegib concentrations in blood, tumor and forebrain compared to POx-vismo ([4]; oral gavage): significantly lower
oral bioavailability [5]: 31.8%
drug levels in the CSF as % of the concentration of unbound vismodegib [6]: 26-78%
drug levels in the CSF as % of total plasma vismodegib [6]: 0.26%
Kp [7]: 0.439
drug albumin-bound in serum (albumin): 90%
vismodegib unbound in serum (albumin): 9%
